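Five compound concentrations were applied to cells in 96-well plates for 48 hours; endpoints were derived by simple linear interpolation of the resulting dose-response curve. GI50 marks 50% less growth. TGI: total growth inhibition.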 A value given as a limit tells only on which side of the number the result lay.

Some test systems named below: A498 renal; MDA-MB-231 breast; NCI-H460 lung; OVCAR-4 ovarian; PC-3 prostate; SR leukemia; T-47D breast; TK-10 renal; UACC-257 melanoma; SK-MEL-2 melanoma.
Holding throughout (assay): NCI anticancer screen, dose series, 48 h

Consider `CCN(CC)c1ccc(C(=N)c2ccc(N(C)C)cc2)cc1`, for which the GI50 with A498 renal is 1.17 µM; in the assay on MDA-MB-231 breast it was 1.33 µM; in the assay on NCI-H460 lung, 1.69 µM; with OVCAR-4 ovarian, 2.75 µM; with PC-3 prostate it was 0.284 µM; with SR leukemia, 0.301 µM. Moreover, the GI50 in the assay with T-47D breast was 1.27 µM; in the assay on TK-10 renal it was 2.41 µM; in the assay with UACC-257 melanoma, 1.36 µM. Also, the TGI in the assay with A498 renal was 6.32 µM; with MDA-MB-231 breast, 3.87 µM; in the assay with NCI-H460 lung, 10.8 µM; in the assay on OVCAR-4 ovarian, above 39.5 µM; in the assay with PC-3 prostate, 7.05 µM; with SR leukemia it was 2.8 µM. The TGI in the assay with T-47D breast worked out at 9.42 µM; in the assay on TK-10 renal, 8.02 µM; with UACC-257 melanoma, 5.11 µM.
For the molecule `COc1ccc(-c2nn(-c3cccc(Cl)c3)cc2-c2cc(-c3ccccc3)nc(N)n2)cc1`, the GI50 was 2.21 µM in the assay with A498 renal; 2.42 µM in the assay on OVCAR-4 ovarian; 1.6 µM in the assay with PC-3 prostate; 3.23 µM with SK-MEL-2 melanoma; 2.03 µM in the assay on SR leukemia; 4.49 µM with T-47D breast. Further, the results for the GI50 in the assay on TK-10 renal and with UACC-257 melanoma were 11.8 µM and 2.58 µM, respectively. Besides, the TGI in the assay with A498 renal is 11.9 µM; with OVCAR-4 ovarian, 9.64 µM; in the assay with PC-3 prostate, 6.56 µM; with SK-MEL-2 melanoma it was 10.7 µM; with SR leukemia, 5.21 µM; with T-47D breast, 17.1 µM. Also, the figures for the TGI with TK-10 renal and with UACC-257 melanoma were 24.1 µM and 8.51 µM, respectively.
`Clc1nc(Cl)c(-c2ccccc2)c(Cl)n1`: the TGI in the assay with A498 renal is 30.1 µM; in the assay with MDA-MB-231 breast, 10.7 µM; in the assay on NCI-H460 lung, 35.9 µM; with OVCAR-4 ovarian, 6.55 µM; in the assay on PC-3 prostate, 16.5 µM; in the assay with SR leukemia, 6.85 µM. Moreover, the TGI with T-47D breast came to 9.28 µM; in the assay with TK-10 renal it was 22.2 µM; in the assay with UACC-257 melanoma it was 7.65 µM.
With `Cn1cc(-c2ccc(-c3cn(C)c4ccc(Cl)cc34)s2)c2cc(Cl)ccc21`, the GI50 with A498 renal, with MDA-MB-231 breast, with NCI-H460 lung, in the assay on OVCAR-4 ovarian, in the assay with PC-3 prostate and in the assay on SK-MEL-2 melanoma was above 100 µM in each case. Moreover, the GI50 with SR leukemia, in the assay with TK-10 renal and in the assay on UACC-257 melanoma was above 100 µM each time. Moreover, the TGI in the assay with A498 renal, with MDA-MB-231 breast, with NCI-H460 lung, in the assay on OVCAR-4 ovarian, in the assay on PC-3 prostate and in the assay with SK-MEL-2 melanoma was above 100 µM each time. For the same molecule, the TGI in the assay with SR leukemia, with TK-10 renal and with UACC-257 melanoma was above 100 µM in each case.
On to `C/C=C/[C@@H]1OC(=O)C2=C[C@@H](O)[C@@H](/C=C/C)O[C@H]21`, for which the GI50 with MDA-MB-231 breast was 12.9 µM; with NCI-H460 lung it was 25.6 µM; in the assay with OVCAR-4 ovarian it was 6.96 µM; with PC-3 prostate it was 13.9 µM; in the assay on SK-MEL-2 melanoma, 23.5 µM; in the assay on SR leukemia it was 16.8 µM. In addition, the GI50 was 3.3 µM with T-47D breast, 1.96 µM in the assay on TK-10 renal and 17.7 µM in the assay with UACC-257 melanoma. Moreover, the TGI in the assay on MDA-MB-231 breast was 29.3 µM; with NCI-H460 lung, 63.7 µM; in the assay on OVCAR-4 ovarian, 27.8 µM; in the assay with PC-3 prostate it was 28.2 µM; in the assay with SK-MEL-2 melanoma, above 58.6 µM; in the assay with SR leukemia, above 100 µM. Besides, the TGI with T-47D breast was 13 µM; in the assay on TK-10 renal, 7.04 µM; in the assay with UACC-257 melanoma it was 33 µM.
As for `CCOC(=O)c1nc(Nc2ccc(Cl)cc2)c2ccccc2n1`, the GI50 in the assay on MDA-MB-231 breast was 14.1 µM; in the assay with NCI-H460 lung, 9.44 µM; in the assay with OVCAR-4 ovarian, 11.3 µM; with PC-3 prostate, 11.6 µM; with SK-MEL-2 melanoma, 13.2 µM; with SR leukemia, 8.87 µM. Also, the GI50 was 8.36 µM in the assay on T-47D breast, 8.11 µM with TK-10 renal and 13 µM with UACC-257 melanoma. Besides, the TGI with MDA-MB-231 breast is 42 µM; in the assay with NCI-H460 lung it was 23.7 µM; in the assay on OVCAR-4 ovarian it was 47.9 µM; with PC-3 prostate, above 50 µM; in the assay on SK-MEL-2 melanoma it was 30.4 µM; in the assay with SR leukemia, above 50 µM. Also, the TGI was determined as 22.5 µM in the assay on T-47D breast, 19.3 µM in the assay with TK-10 renal and 30.6 µM in the assay on UACC-257 melanoma.
As to `Nc1cc(N)c2nc(-c3ccccc3)c(NCc3ccc(F)cc3)nc2c1`, the GI50 is 16.8 µM in the assay with A498 renal; 2.13 µM in the assay with MDA-MB-231 breast; 4.05 µM in the assay with NCI-H460 lung; 1.69 µM in the assay with OVCAR-4 ovarian; 3.5 µM in the assay on PC-3 prostate; 5.21 µM with SK-MEL-2 melanoma. The GI50 in the assay with SR leukemia is 4.11 µM; with TK-10 renal it was 5.83 µM; with UACC-257 melanoma it was 2.02 µM. The TGI in the assay on A498 renal was 31 µM; in the assay on MDA-MB-231 breast, 5.08 µM; with NCI-H460 lung, 25.6 µM; in the assay with OVCAR-4 ovarian it was 8.08 µM; in the assay with PC-3 prostate it was 15.6 µM; in the assay with SK-MEL-2 melanoma, above 100 µM. The TGI in the assay on SR leukemia is above 100 µM; in the assay on TK-10 renal, 19.8 µM; in the assay on UACC-257 melanoma, 4.26 µM.
With `CCCOc1nc(SCCC)nc2c1cnn2-c1ccccc1`, the GI50 in the assay with A498 renal was above 100 µM; in the assay on MDA-MB-231 breast, above 100 µM; in the assay on NCI-H460 lung it was above 100 µM; in the assay on OVCAR-4 ovarian it was above 100 µM; in the assay with PC-3 prostate, 30.7 µM; with SR leukemia, 32.2 µM. Moreover, the GI50 with T-47D breast and in the assay with UACC-257 melanoma was above 100 µM in each case. The TGI in the assay with A498 renal, in the assay on MDA-MB-231 breast, with NCI-H460 lung, with OVCAR-4 ovarian, in the assay on PC-3 prostate and in the assay with SR leukemia was above 100 µM in each case. For the same molecule, the TGI in the assay on T-47D breast and with UACC-257 melanoma was above 100 µM in each case.

The record behind these values is PubChem BioAssay (NCI).
